Data from US9776964B2, “Phenoxyethyl cyclic amine derivatives and their activity as EP4 receptor modulators” (Eli Lilly and Company, priority 2013, dated 2017).
Counter-ions that a name gives are not always drawn.

Tests used:
human EP4 [1] = biological target: T1, human EP4 (Homo sapiens, UniProt P35408); assay: In vitro human EP4 functional antagonist activity (inhibition of PGE2-stimulated cAMP production, HTRF); type: cell-based; design: expressed in transfected cells; conditions: HEK293 cells expressing human EP4, EC80 of PGE2 (0.188 nM); geometric mean ± SD, n=6; read-out: IC50 measured at human EP4 (PGE2-stimulated cAMP production)
Experimental: Assays are conducted in recombinant HEK293 cells stably expressing human EP4 receptor. The cell lines are maintained by culturing in DMEM with high glucose and pyridoxine hydrochloride (Invitrogen) supplemented with 10% fetal bovine serum (FBS), 1 mM sodium pyruvate, 10 mM HEPES, […] and 2 mM L-glutamine. Confluent cultures are grown at 37° C. in an atmosphere containing 5% CO2. Cells are harvested using 2.5% Trypsin-EDTA, suspended in freeze media (FBS with 6% DMSO) at 10^7 cells/mL and aliquots are stored in liquid nitrogen. Just before assay, cells are thawed in DMEM, centrifuged, and resuspended in cAMP buffer.
The inhibition of PGE2-stimulated cAMP production by EP4 antagonists is measured using HTRF; (Cisbio catalog #62AM4PEB). […] The HTRF signal is detected using an EnVision® plate reader (Perkin-Elmer) to calculate the ratio of fluorescence at 665 nm to 620 nm. […] Results are expressed as the geometric mean±standard deviation; n=number of independent determinations. The standard deviation is calculated by the delta method, being SDlog Ki×geometric mean×ln(10).

human EP4 [2] = biological target: T1, human EP4; assay: In vitro binding to human EP4 ([3H]-PGE2 displacement, membranes); design: expressed in transfected cells; conditions: HEK293 membranes, geometric mean ± SD, n = 6, read-out: hEP4, Ki
Experimental: (§1) hEP1 and hEP4 membranes are prepared from recombinant HEK293 cells stably expressing human EP1 (Genbank accession number AY275470) or EP4 (Genbank accession number AY429109) receptors. hEP2 and hEP3 membranes are prepared from HEK293 cells transiently transfected with EP2 (Genbank accession number AY275471) or EP3 (isoform VI: Genbank accession number AY429108) receptor plasmids. Frozen cell pellets are homogenized in homogenization buffer using a Teflon/glass homogenizer. Membrane protein is aliquoted and quick frozen on dry ice prior to storage at −80° C. […]
(§2) Kd values for [3H]-PGE2 binding to each receptor are determined by saturation binding studies or homologous competition. […] Nonspecific binding is calculated by comparing binding in the presence and absence of 2 μM of PGE2. The membranes are harvested by filtration (TomTek harvester), washed 4 times with cold buffer (10 mM MES pH 6.0 with KOH, 10 mM MgCl2), dried in a 60° C. oven, and the radioactivity is quantified as counts per minute (CPM) using a TopCount detector. Percent specific binding is calculated as the percent of the binding in the absence of any inhibitor, corrected for binding in the presence of 2 uM of PGE2. […] Results are expressed as the geometric mean±standard deviation; n=number of independent determinations. The standard deviation is calculated by the delta method, being SDlog Ki×geometric mean×ln(10).

human EP2 = biological target: T2, human EP2 (Homo sapiens, UniProt P43116); assay: In vitro binding to human EP2 ([3H]-PGE2 displacement, membranes); conditions: HEK293 membranes, n = 1, read-out: hEP2, Ki
T2 construct: expressed in transfected cells; host or cells: HEK293 (transient)
Experimental: as §1, §2

human EP1 = biological target: T3, human EP1 (Homo sapiens, UniProt P34995); assay: In vitro binding to human EP1 ([3H]-PGE2 displacement, membranes); conditions: HEK293 membranes, n = 1, read-out: hEP1, Ki
T3 construct: expressed in transfected cells
T3 sequence (P34995 1-402): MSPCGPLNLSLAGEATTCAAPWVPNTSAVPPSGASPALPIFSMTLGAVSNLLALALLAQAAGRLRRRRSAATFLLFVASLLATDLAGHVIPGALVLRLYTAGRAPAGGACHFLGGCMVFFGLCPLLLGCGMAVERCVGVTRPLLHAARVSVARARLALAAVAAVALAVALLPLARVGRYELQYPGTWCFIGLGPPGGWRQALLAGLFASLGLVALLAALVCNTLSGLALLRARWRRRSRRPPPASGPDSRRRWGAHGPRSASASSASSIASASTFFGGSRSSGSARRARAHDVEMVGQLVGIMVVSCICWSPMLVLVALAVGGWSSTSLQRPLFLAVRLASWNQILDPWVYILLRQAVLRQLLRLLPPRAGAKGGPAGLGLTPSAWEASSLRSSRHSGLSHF
Experimental: as §1, §2

human EP4 [3] = biological target: T1, human EP4; assay: In vitro antagonist activity in human whole blood (reversal of PGE2 inhibition of LPS-induced TNFα production); type: cell-based; design: Blood is collected from normal volunteer donors into sodium heparin vacutainer tubes; from tissue; host or cells: human whole blood from volunteer donors; conditions: 10 μg/mL LPS + 10 nM PGE2, 20-24 hours, geometric mean ± SD, n=6, read-out: IC50 in human blood TNFα induction assay
Description: The inhibitory effects of PGE2 on LPS-induced TNFα production from macrophages/monocytes are believed to be mediated by EP4 receptors (See Murase, A., et al., Life Sciences, 82:226-232 (2008)). The ability of the compound of Example 8 to reverse the inhibitory effect of PGE2 on LPS-induced TNFα production in human whole blood is an indicia of functional activity.
Blood is collected from normal volunteer donors into sodium heparin vacutainer tubes. Donors have not taken NSAIDs or celecoxib within 48 hours or glucocorticoids within two weeks of the donation. All tubes/donor are pooled into 50 mL Falcon conical centrifuge tubes and 98 μL/well is distributed into 96-well tissue culture plates (Falcon 3072). […] TNFα levels in 2 μL plasma are quantified by a commercially available enzyme immunoassay (R&D Systems DY210), using Immulon 4 HBX plates (Thermo 3855) and 3,3′,5,5′ tetramethylbiphenyl-4,4′-diamine substrate (KPL 50-76-03). The plates are read at A450-A650 on a plate reader (Molecular Devices Versamax) using SOFTmaxPRO (v. 4.3.1) software. IC50s are calculated using Graphpad Prism (v. 4) nonlinear regression, sigmoidal dose response curve fitting. Results are expressed as the geometric mean±standard deviation; n=number of independent determinations The standard deviation is calculated by the delta method, being SDlog Ki×geometric mean×ln(10).

human EP3 (isoform VI) = biological target: T4, human EP3 (isoform VI) (Homo sapiens, UniProt P43115); assay: In vitro binding to human EP3 ([3H]-PGE2 displacement, membranes)
T4 sequence (P43115 1-359): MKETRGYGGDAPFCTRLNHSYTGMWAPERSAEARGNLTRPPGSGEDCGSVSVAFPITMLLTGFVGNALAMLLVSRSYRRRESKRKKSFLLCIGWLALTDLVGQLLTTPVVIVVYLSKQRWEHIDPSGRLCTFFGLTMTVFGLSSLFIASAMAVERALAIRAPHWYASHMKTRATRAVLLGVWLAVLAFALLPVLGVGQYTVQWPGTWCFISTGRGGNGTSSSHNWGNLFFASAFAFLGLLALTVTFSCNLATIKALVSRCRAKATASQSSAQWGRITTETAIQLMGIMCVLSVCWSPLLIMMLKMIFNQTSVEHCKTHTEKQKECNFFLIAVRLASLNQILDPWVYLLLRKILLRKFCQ
Experimental: as §1, §2

T1 sequence (P35408 whole entry): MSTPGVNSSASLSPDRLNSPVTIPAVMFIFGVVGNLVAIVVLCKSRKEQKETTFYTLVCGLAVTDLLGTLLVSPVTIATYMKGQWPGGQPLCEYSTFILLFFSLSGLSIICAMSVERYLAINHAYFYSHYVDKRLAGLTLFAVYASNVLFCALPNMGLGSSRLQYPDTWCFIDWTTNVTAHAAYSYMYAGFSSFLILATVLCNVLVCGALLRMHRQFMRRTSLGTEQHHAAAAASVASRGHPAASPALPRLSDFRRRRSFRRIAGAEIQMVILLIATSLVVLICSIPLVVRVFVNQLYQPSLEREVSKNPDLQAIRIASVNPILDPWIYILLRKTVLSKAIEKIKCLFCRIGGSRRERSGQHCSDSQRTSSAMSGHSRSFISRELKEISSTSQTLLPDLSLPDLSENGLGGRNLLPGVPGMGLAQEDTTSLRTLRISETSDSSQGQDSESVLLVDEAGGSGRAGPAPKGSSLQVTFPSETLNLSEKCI
T2 sequence (P43116 whole entry): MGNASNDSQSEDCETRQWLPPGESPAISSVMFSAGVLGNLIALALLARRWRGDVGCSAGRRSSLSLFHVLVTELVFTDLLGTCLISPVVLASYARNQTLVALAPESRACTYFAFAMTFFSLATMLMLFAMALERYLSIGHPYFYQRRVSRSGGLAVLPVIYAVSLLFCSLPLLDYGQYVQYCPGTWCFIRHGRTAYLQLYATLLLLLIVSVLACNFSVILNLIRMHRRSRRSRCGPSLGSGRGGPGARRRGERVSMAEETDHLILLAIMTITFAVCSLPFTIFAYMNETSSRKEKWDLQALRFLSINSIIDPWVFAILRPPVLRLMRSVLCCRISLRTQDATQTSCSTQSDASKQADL

C[C@H](NC(=O)[C@H]1CC(F)(F)CCN1CCOc1ccccc1)c1ccc(C(=O)O)cc1 [Example 8, 4-((1S)-1-(((2R)-1-(2-phenoxyethyl)-4,4-difluoropiperidin-2-carbonyl)amino)ethyl)benzoic acid hydrochloride]
IC50 (human EP4 [1]): 1.76 ± 1.51 nM | Ki (human EP4 [2]): 3.68 ± 3.32 nM | Ki (human EP2): 956 nM | Ki (human EP1): > 12500 nM | IC50 (human EP4 [3]): 78.2 ± 61 nM | Ki (human EP3 (isoform VI)): > 14800 nM
